Laboratory results reported in patent US11980596B2 (priority 2017, dated 2024).

Test system: subjects with MDD at imminent risk for suicide
[1] = esketamine 84 mg, double-blind phase, N = 35
[2] = esketamine 84 mg, follow up phase, N = 27

Experimental: The study consisted of a screening evaluation performed within 24 hours (or up to 48 hours upon consultation with the Sponsor's medical monitor) prior to Day 1 dose, immediately followed by a 25-day double-blind treatment phase (Day 1 to 25) with twice a week dosing, and a 56-day follow up phase (Day 26 to Day 81). The study was designed as a POC study and therefore a two-sided 0.20 significance level was used.
Among 68 randomized subjects, 66 were included in the safety analysis set (defined as receiving at least one dose of study medication in the double-blind phase). […] All safety subjects (N=66) were included in the intent-to-treat (ITT) analysis set (defined as receiving at least one dose of study medication during the double-blind phase and having both the baseline and the Day 1, 4-hour postdose evaluation for the MADRS total score). Forty-nine subjects were included in the safety (FU) analysis set (defined as all subjects who have at least 1 visit during the follow up phase).

CN[C@]1(c2ccccc2Cl)CCCCC1=O [esketamine, (S)-2-(2-chlorophenyl)-2-(methylamino)cyclohexanone]
(7.4%): AE Dry mouth, % of subjects [2] | AE Headache, % of subjects [2] | AE Injury, poisoning and procedural complications, % of subjects [2] | AE Musculoskeletal and connective tissue disorders, % of subjects [2] | AE Pharyngitis, % of subjects [2] | AE Respiratory, thoracic and mediastinal disorders, % of subjects [2] | AE Tremor, % of subjects [2]
20: TEAE Psychiatric disorders, no. subjects [1]
1 (3.7%) subjects (%): Serious adverse event: Psychiatric disorders [2] | Serious adverse event: Suicidal ideation [2] | Total no. subjects with a serious adverse event [2]
(34.3%): TEAE Dizziness, % of subjects [1]
7: TEAE Eye disorders, no. subjects [1] | TEAE Vomiting, no. subjects [1]
(22.2%): AE Gastrointestinal disorders, % of subjects [2] | AE Nervous system disorders, % of subjects [2]
(17.1%): TEAE Anxiety, % of subjects [1] | TEAE Paresthesia, % of subjects [1] | TEAE Sedation, % of subjects [1]
0 subjects (%): TEAE leading to death [1] | TEAE leading to study discontinuation: Dissociative disorder [1] | TEAE leading to study discontinuation: Panic attack [1] | Serious adverse event: Cellulitis [2] | Serious adverse event: Infections and infestations [2] | Serious adverse event: Suicide attempt [2]
33 (94.3%) subjects (%): TEAE [1]
(20.0%): TEAE Eye disorders, % of subjects [1] | TEAE Vomiting, % of subjects [1]
12: TEAE Dizziness, no. subjects [1]
4 (11.4%) subjects (%): 1 or more serious TEAE [1] | Serious TEAE: Psychiatric disorders [1] | Total no. subjects with a serious TEAE [1]
3: TEAE Agitation, no. subjects [1] | TEAE Diarrhea, no. subjects [1] | TEAE Dry mouth, no. subjects [1] | TEAE Feeling abnormal, no. subjects [1] | TEAE Hypoesthesia, no. subjects [1] | TEAE Insomnia, no. subjects [1] | TEAE Nasal discomfort, no. subjects [1] | TEAE Throat irritation, no. subjects [1] | TEAE Vision blurred, no. subjects [1] | AE Infections and infestations, no. subjects [2] | AE Insomnia, no. subjects [2]
(18.5%): AE Psychiatric disorders, % of subjects [2]
(57.1%): TEAE Psychiatric disorders, % of subjects [1]
6: TEAE Anxiety, no. subjects [1] | TEAE Paresthesia, no. subjects [1] | TEAE Sedation, no. subjects [1] | AE Gastrointestinal disorders, no. subjects [2] | AE Nervous system disorders, no. subjects [2]
9: TEAE Ear and labyrinth disorders, no. subjects [1] | TEAE Respiratory, thoracic and mediastinal disorders, no. subjects [1]
(14.3%): TEAE Investigations, % of subjects [1] | TEAE Skin and subcutaneous tissue disorders, % of subjects [1]
(2.9%): TEAE Flatulence, % of subjects [1] | TEAE Infections and infestations, % of subjects [1] | TEAE Nasal congestion, % of subjects [1] | TEAE Rash, % of subjects [1] | TEAE Renal and urinary disorders, % of subjects [1]
(94.3%): Total subjects with TEAE, % of subjects [1]
34.3%: TEAE: dizziness (84 mg, double-blind phase)
5: TEAE Investigations, no. subjects [1] | TEAE Skin and subcutaneous tissue disorders, no. subjects [1] | AE Psychiatric disorders, no. subjects [2]
29 (82.9%) subjects (%): Possibly related TEAE (esketamine 84 mg, double-blind phase, N = 35, possible, probable, very likely)
11: TEAE Dissociation, no. subjects [1] | TEAE Dysgeusia, no. subjects [1] | TEAE Headache, no. subjects [1]
19: TEAE Gastrointestinal disorders, no. subjects [1]
(37.1%): TEAE Nausea, % of subjects [1]
none: Suicide attempts (non-fatal) (follow up period)
4: TEAE Euphoric mood, no. subjects [1] | TEAE Somnolence, no. subjects [1] | TEAE Vertigo, no. subjects [1]
(31.4%): TEAE Dissociation, % of subjects [1] | TEAE Dysgeusia, % of subjects [1] | TEAE Headache, % of subjects [1]
(71.4%): TEAE Nervous system disorders, % of subjects [1]
33: Total no. subjects with TEAE [1]
5 subjects: Discontinued from the double-blind phase due to (treatment-emergent) adverse events (84 mg)
0: TEAE Abdominal pain, no. subjects [1] | TEAE Blepharospasm, no. subjects [1] | TEAE Constipation, no. subjects [1] | TEAE Epistaxis, no. subjects [1] | TEAE Intranasal paranesthesia, no. subjects [1] | TEAE Panic attack, no. subjects [1] | TEAE Pollakiuria, no. subjects [1] | TEAE Rhinalgia, no. subjects [1] | TEAE Rhinorrhoea, no. subjects [1] | TEAE Toothache, no. subjects [1] | TEAE Upper respiratory tract infection, no. subjects [1] | AE Aphthous ulcer, no. subjects [2] | AE Bronchitis, no. subjects [2] | AE Cellulitis, no. subjects [2] | AE Depressed mood, no. subjects [2] | AE Drug hypersensitivity, no. subjects [2] | AE Ear and labyrinth disorders, no. subjects [2] | AE Folliculitis, no. subjects [2] | AE Immune system disorders, no. subjects [2] | AE Influenza, no. subjects [2] | AE Meniere's disease, no. subjects [2] | AE Metabolism and nutrition disorders, no. subjects [2] | AE Nausea, no. subjects [2] | AE Panic reaction, no. subjects [2] | AE Polydipsia, no. subjects [2] | AE Procedural pain, no. subjects [2] | AE Rash, no. subjects [2] | AE Renal and urinary disorders, no. subjects [2] | AE Renal failure, no. subjects [2] | AE Self-injurious ideation, no. subjects [2] | AE Sexual dysfunction, no. subjects [2] | AE Somnolence, no. subjects [2] | AE Suicide attempt, no. subjects [2] | AE Tooth impacted, no. subjects [2] | AE Toothache, no. subjects [2] | AE Viral upper respiratory tract infection, no. subjects [2]
(48.1%): Total subjects with adverse events, % of subjects [2]
10: TEAE General disorders and administration site conditions, no. subjects [1]
20.0%: TEAE: vomiting (84 mg, double-blind phase)
(3.7%): AE Abdominal pain, % of subjects [2] | AE Abdominal tenderness, % of subjects [2] | AE Back pain, % of subjects [2] | AE Cogwheel rigidity, % of subjects [2] | AE Contusion, % of subjects [2] | AE Depression, % of subjects [2] | AE Diarrhea, % of subjects [2] | AE Dizziness, % of subjects [2] | AE Dysgeusia, % of subjects [2] | AE Ear infection, % of subjects [2] | AE Epistaxis, % of subjects [2] | AE Flank pain, % of subjects [2] | AE Intentional self-injury, % of subjects [2] | AE Loss of consciousness, % of subjects [2] | AE Migraine, % of subjects [2] | AE Musculoskeletal chest pain, % of subjects [2] | AE Musculoskeletal pain, % of subjects [2] | AE Nasal congestion, % of subjects [2] | AE Nasopharyngitis, % of subjects [2] | AE Neck pain, % of subjects [2] | AE Night sweats, % of subjects [2] | AE Pelvic pain, % of subjects [2] | AE Reproductive system and breast disorders, % of subjects [2] | AE Restlessness, % of subjects [2] | AE Road traffic accident, % of subjects [2] | AE Sedation, % of subjects [2] | AE Skin and subcutaneous tissue disorders, % of subjects [2] | AE Suicidal ideation, % of subjects [2] | AE Upper respiratory tract infection, % of subjects [2] | AE Vomiting, % of subjects [2] | AE Vulvovaginal mycotic infection, % of subjects [2]
(28.6%): TEAE General disorders and administration site conditions, % of subjects [1]
25: TEAE Nervous system disorders, no. subjects [1]
37.1%: TEAE: nausea (84 mg, double-blind phase)
(11.1%): AE Infections and infestations, % of subjects [2] | AE Insomnia, % of subjects [2]
(8.6%): TEAE Agitation, % of subjects [1] | TEAE Diarrhea, % of subjects [1] | TEAE Dry mouth, % of subjects [1] | TEAE Feeling abnormal, % of subjects [1] | TEAE Hypoesthesia, % of subjects [1] | TEAE Insomnia, % of subjects [1] | TEAE Nasal discomfort, % of subjects [1] | TEAE Throat irritation, % of subjects [1] | TEAE Vision blurred, % of subjects [1]
(54.3%): TEAE Gastrointestinal disorders, % of subjects [1]
2: TEAE Acne, no. subjects [1] | TEAE Blood pressure increased, no. subjects [1] | TEAE Diplopia, no. subjects [1] | TEAE Dizziness postural, no. subjects [1] | TEAE Fatigue, no. subjects [1] | TEAE Feeling cold, no. subjects [1] | TEAE Hyperacusis, no. subjects [1] | TEAE Hyperhidrosis, no. subjects [1] | TEAE Hypoesthesia oral, no. subjects [1] | TEAE Oropharyngeal pain, no. subjects [1] | TEAE Paresthesia oral, no. subjects [1] | TEAE Pharyngeal hypoesthesia, no. subjects [1] | TEAE Suicidal ideation, no. subjects [1] | TEAE Tinnitus, no. subjects [1] | TEAE Weight increased, no. subjects [1] | AE Dry mouth, no. subjects [2] | AE Headache, no. subjects [2] | AE Injury, poisoning and procedural complications, no. subjects [2] | AE Musculoskeletal and connective tissue disorders, no. subjects [2] | AE Pharyngitis, no. subjects [2] | AE Respiratory, thoracic and mediastinal disorders, no. subjects [2] | AE Tremor, no. subjects [2]
2 (5.7%) subjects (%): Serious TEAE: Suicidal ideation [1] | TEAE leading to study discontinuation: Nervous system disorders [1] | TEAE leading to study discontinuation: Psychiatric disorders [1]
(5.7%): TEAE Acne, % of subjects [1] | TEAE Blood pressure increased, % of subjects [1] | TEAE Diplopia, % of subjects [1] | TEAE Dizziness postural, % of subjects [1] | TEAE Fatigue, % of subjects [1] | TEAE Feeling cold, % of subjects [1] | TEAE Hyperacusis, % of subjects [1] | TEAE Hyperhidrosis, % of subjects [1] | TEAE Hypoesthesia oral, % of subjects [1] | TEAE Oropharyngeal pain, % of subjects [1] | TEAE Paresthesia oral, % of subjects [1] | TEAE Pharyngeal hypoesthesia, % of subjects [1] | TEAE Suicidal ideation, % of subjects [1] | TEAE Tinnitus, % of subjects [1] | TEAE Weight increased, % of subjects [1]
1: TEAE Flatulence, no. subjects [1] | TEAE Infections and infestations, no. subjects [1] | TEAE Nasal congestion, no. subjects [1] | TEAE Rash, no. subjects [1] | TEAE Renal and urinary disorders, no. subjects [1] | AE Abdominal pain, no. subjects [2] | AE Abdominal tenderness, no. subjects [2] | AE Back pain, no. subjects [2] | AE Cogwheel rigidity, no. subjects [2] | AE Contusion, no. subjects [2] | AE Depression, no. subjects [2] | AE Diarrhea, no. subjects [2] | AE Dizziness, no. subjects [2] | AE Dysgeusia, no. subjects [2] | AE Ear infection, no. subjects [2] | AE Epistaxis, no. subjects [2] | AE Flank pain, no. subjects [2] | AE Intentional self-injury, no. subjects [2] | AE Loss of consciousness, no. subjects [2] | AE Migraine, no. subjects [2] | AE Musculoskeletal chest pain, no. subjects [2] | AE Musculoskeletal pain, no. subjects [2] | AE Nasal congestion, no. subjects [2] | AE Nasopharyngitis, no. subjects [2] | AE Neck pain, no. subjects [2] | AE Night sweats, no. subjects [2] | AE Pelvic pain, no. subjects [2] | AE Reproductive system and breast disorders, no. subjects [2] | AE Restlessness, no. subjects [2] | AE Road traffic accident, no. subjects [2] | AE Sedation, no. subjects [2] | AE Skin and subcutaneous tissue disorders, no. subjects [2] | AE Suicidal ideation, no. subjects [2] | AE Upper respiratory tract infection, no. subjects [2] | AE Vomiting, no. subjects [2] | AE Vulvovaginal mycotic infection, no. subjects [2]
1 subjects: Subjects with a serious adverse event (84 mg group, follow up phase)
5 (14.3%) subjects (%): TEAE leading to drug withdrawn [1] | Total no. subjects with TEAE leading to study discontinuation [1]
(25.7%): TEAE Ear and labyrinth disorders, % of subjects [1] | TEAE Respiratory, thoracic and mediastinal disorders, % of subjects [1]
5 (13.9%) subjects (%): Withdrawn from double-blind phase: Adverse event (esketamine 84 mg, all randomized analysis set, N = 36)
1 (2.9%) subjects (%): Serious TEAE: Agitation [1] | Serious TEAE: Depressive symptom [1] | TEAE leading to study discontinuation: Aggression [1] | TEAE leading to study discontinuation: Agitation [1] | TEAE leading to study discontinuation: Cardiac disorders [1] | TEAE leading to study discontinuation: Dizziness [1] | TEAE leading to study discontinuation: Dysgeusia [1] | TEAE leading to study discontinuation: Dyspnea [1] | TEAE leading to study discontinuation: Gastrointestinal disorders [1] | TEAE leading to study discontinuation: Nausea [1] | TEAE leading to study discontinuation: Respiratory, thoracic and mediastinal disorders [1] | TEAE leading to study discontinuation: Ventricular extrasystoles [1]
(11.4%): TEAE Euphoric mood, % of subjects [1] | TEAE Somnolence, % of subjects [1] | TEAE Vertigo, % of subjects [1]
13: TEAE Nausea, no. subjects [1] | Total no. subjects with adverse events [2]
31.4%: TEAE: dissociation (84 mg, double-blind phase) | TEAE: dysgeusia (84 mg, double-blind phase) | TEAE: headache (84 mg, double-blind phase)
